# Laboratory results published in US10670605B2, “Cysteine reactive probes and uses thereof” (The Scripps Research Institute, priority 2015, dated 2020).
# Columns and labels:
# Test in all cases: Competitive isoTOP-ABPP, cell lysates
# Type in all cases: binding
# [1] = target: T1, PDIA6 C190 (Q15084) (Homo sapiens, UniProt Q15084)
# T1 sequence (Q15084 20-440): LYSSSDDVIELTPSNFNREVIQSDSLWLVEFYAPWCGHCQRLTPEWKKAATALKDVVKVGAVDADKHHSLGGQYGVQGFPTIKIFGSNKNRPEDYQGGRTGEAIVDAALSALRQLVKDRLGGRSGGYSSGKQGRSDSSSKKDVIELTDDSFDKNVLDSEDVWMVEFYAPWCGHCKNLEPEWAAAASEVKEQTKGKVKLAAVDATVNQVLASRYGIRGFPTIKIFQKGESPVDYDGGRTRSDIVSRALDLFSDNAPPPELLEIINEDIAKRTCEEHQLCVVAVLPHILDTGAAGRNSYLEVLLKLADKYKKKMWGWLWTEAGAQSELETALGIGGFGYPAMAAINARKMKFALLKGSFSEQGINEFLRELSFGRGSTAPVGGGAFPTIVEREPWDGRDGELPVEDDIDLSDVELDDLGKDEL
# [2] = target: XPO1 C528 (O14980) (Homo sapiens, UniProt O14980)
# [3] = target: UBE2L3 C86 (P68036) (Homo sapiens, UniProt P68036)
# [4] = target: STAT3 C259 (P40763) (Homo sapiens, UniProt P40763); settings: 500 μm in-vitro ramos
# [5] = target: GSTP1 C48 (P09211) (Homo sapiens, UniProt P09211)
# [6] = target: T2, PCK2 C306 (Q16822) (Homo sapiens, UniProt Q16822)
# T2 sequence (Q16822 33-640): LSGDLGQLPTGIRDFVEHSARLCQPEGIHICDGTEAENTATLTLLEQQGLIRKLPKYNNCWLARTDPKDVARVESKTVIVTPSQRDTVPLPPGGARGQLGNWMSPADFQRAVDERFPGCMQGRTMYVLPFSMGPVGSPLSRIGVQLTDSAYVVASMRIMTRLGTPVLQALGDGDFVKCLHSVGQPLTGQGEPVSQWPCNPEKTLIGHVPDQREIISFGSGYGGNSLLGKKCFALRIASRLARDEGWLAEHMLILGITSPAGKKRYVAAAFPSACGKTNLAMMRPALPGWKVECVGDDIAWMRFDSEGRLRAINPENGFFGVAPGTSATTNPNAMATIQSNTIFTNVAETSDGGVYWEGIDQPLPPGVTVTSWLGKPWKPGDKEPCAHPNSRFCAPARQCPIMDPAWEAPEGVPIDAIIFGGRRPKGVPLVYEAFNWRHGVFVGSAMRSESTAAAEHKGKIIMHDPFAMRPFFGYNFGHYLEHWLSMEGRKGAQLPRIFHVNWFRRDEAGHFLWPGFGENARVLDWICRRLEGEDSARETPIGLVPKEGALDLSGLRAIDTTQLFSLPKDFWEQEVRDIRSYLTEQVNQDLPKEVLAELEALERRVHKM
# [7] = target: T3, PDIA6 C55 (Q15084) (Homo sapiens, UniProt Q15084)
# T3 sequence (Q15084 20-440): T1 sequence (Q15084 20-440)
# [8] = target: SMARCC2 C145 (Q8TAQ2) (Homo sapiens, UniProt Q8TAQ2)
# [9] = target: IDH1 C269 (O75874) (Homo sapiens, UniProt O75874)
# [10] = target: SAMHD1 C522 (Q9Y3Z3) (Homo sapiens, UniProt Q9Y3Z3)
# [11] = target: GNB2L1 C182 (P63244) (Homo sapiens, UniProt P63244)
Compound,"isoTOP-ABPP ratio (reactivity profile), Q15084_C190 ([1]; 500 μm in-vitro ramos)","isoTOP-ABPP ratio (reactivity profile), Q15084_C190 ([1]; 500 μm in-vitro ramos_231)","isoTOP-ABPP ratio (reactivity profile), O14980_C528 ([2]; 500 μm in-vitro ramos)","isoTOP-ABPP ratio (reactivity profile), O14980_C528 ([2]; 500 μm in-vitro ramos_231)","isoTOP-ABPP ratio (reactivity profile), P68036_C86 ([3]; 500 μm in-vitro ramos)","isoTOP-ABPP ratio (reactivity profile), P68036_C86 ([3]; 500 μm in-vitro ramos_231)","isoTOP-ABPP ratio (reactivity profile), P40763_C259 [4]","isoTOP-ABPP ratio (reactivity profile), P09211_C48 ([5]; 500 μm in-vitro ramos)","isoTOP-ABPP ratio (reactivity profile), P09211_C48 ([5]; 500 μm in-vitro ramos_231)","isoTOP-ABPP ratio (reactivity profile), Q16822_C306 ([6]; 500 μm in-vitro ramos)","isoTOP-ABPP ratio (reactivity profile), Q16822_C306 ([6]; 500 μm in-vitro ramos_231)","isoTOP-ABPP ratio (reactivity profile), Q15084_C55 ([7]; 500 μm in-vitro ramos)","isoTOP-ABPP ratio (reactivity profile), Q15084_C55 ([7]; 500 μm in-vitro ramos_231)","isoTOP-ABPP ratio (reactivity profile), Q8TAQ2_C145 ([8]; 500 μm in-vitro ramos_231)","isoTOP-ABPP ratio (reactivity profile), Q9Y3Z3_C522 ([10]; 500 μm in-vitro ramos)","isoTOP-ABPP ratio (reactivity profile), P63244_C182 ([11]; 500 μm in-vitro ramos)","isoTOP-ABPP ratio (reactivity profile), P63244_C182 ([11]; 500 μm in-vitro ramos_231)",further results
O=C(CCl)N1CCC(C(O)(c2ccccc2)c2ccccc2)CC1 [compound 20],2.1,2.1,4.0,1.4,1.2,1.1,3.0,1.1,2.5,1.6,2.5,2.0,1.7,2.9,1.3,1.1,1.4,"isoTOP-ABPP ratio (reactivity profile), Q8TAQ2_C145 ([8]; 500 μm in-vitro ramos): 3.9; R value (DMSO/fragment) ([9]; 25 μM, endogenous IDH1, MDA-MB-231 proteome): 20; isoTOP-ABPP ratio (reactivity profile), O75874_C269 ([9]; 500 μm in-vitro ramos): 0.6; isoTOP-ABPP ratio (reactivity profile), Q9Y3Z3_C522 ([10]; 500 μm in-vitro ramos_231): 2.1"
O=C(CCl)NC12CC3CC(CC(C3)C1)C2 [compound 21],2.3,1.1,0.8,0.9,2.0,1.2,2.9,1.3,1.1,2.0,1.2,2.1,1.1,1.2,1.4,0.9,0.9,"isoTOP-ABPP ratio (reactivity profile), O75874_C269 ([9]; 500 μm in-vitro ramos_231): 1.5"
